The record followed here is US20230263822A1, “MODULATION OF FACTOR 11 EXPRESSION” (Ionis Pharmaceuticals, Inc., priority 2008, published 2023).

Strand notation (5' to 3'): a small letter for the sugar, then the base; units joined by * are phosphorothioate-linked, units joined directly phosphodiester-linked; [ ] holds rarer units or linkages, { } end groups; capitals alone tell only the bases. e = 2'-O-(2-methoxyethyl) (MOE); [5mC] = 5-methylcytosine; d = 2'-deoxy (DNA)

Data set [1] in a line: Tolerability in CD1 mice: hematology assays (Example 43). Format: in vivo. Conditions: 50 mg/kg s.c. twice per week for 6 weeks, blood.
A short description of data set [2]: Tolerability in CD1 mice: liver function (Example 43). Format: in vivo. Set-up: Albumin: unit not given here. Conditions: 50 mg/kg s.c. twice per week for 6 weeks, plasma.

In data set [1], “ISIS 449711: 3-8-3, 4-8-4, 2-10-2, 3-10-3 or 4-10-4 MOE microwalk gapmer (Table 46) (antisense eA*e[5mC]*dA*dG*dT*dT*dT*d[5mC]*dT*dG*dG*d[5mC]*eA*eG)” returned a Platelets of 1225 nL⁻¹, an RBC of 9.0 pL⁻¹, a WBC of 6 nL⁻¹ and a hematocrit of 48%. In addition, in data set [1], the hemoglobin turned out to be 13.3 g/dL, the lymphocytes worked out at 79%, the monocytes was determined as 6% and the neutrophils amounted to 15%. Further, in data set [2], the ALT was 52 IU/L, the AST is 83 IU/L, the Albumin is given as 2.8 and the Bilirubin was determined as 0.22 mg/dL.
